Experimental data taken from patent US11945806B2, “Stabilization of amyloidogenic immunoglobulin light chains” (The Scripps Research Institute, priority 2019, dated 2024).

Biological target: WIL-FL (Homo sapiens, UniProt P01721)
Test: Unlabeled LC Protease Sensitivity Assay (proteinase K)
Type: biochemical
Settings: small molecule 10 μM, WIL-FL 5 μM, proteinase K 50 nM, 2 hours at 37° C.
Outline: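 WIL-FL light chain (5 μM) in PBS pH 7.4 + 0.02% Pluronic F-127 digested with proteinase K (50 nM) for 2 h at 37 °C with 10 μM compound (1% DMSO). Intact WIL-FL quantified by size-exclusion UPLC (A280). Fold protection = (A_compound−A_vehicle)/(A_no_protease−A_vehicle) from peak areas.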

**Q.** Which “Protection (fold protection of LC from protease)” value does the source give for CCN(CC)c1ccc2c(C)c(CCN3C(=O)CNC3=O)c(=O)oc2c1 [Compound 130, 3-(2-(7-(diethylamino)-4-methyl-2-oxo-2H-chromen-3-yl)ethyl)imidazolidine-2,4-dione] here?
**A.** B (3 ≤ B < 0.6)

**Q.** CCN(CC)c1ccc2c(C)c(CCNC(=O)NCc3ccc4ccccc4c3)c(=O)oc2c1 [Compound 292, 1-(2-(7-(diethylamino)-4-methyl-2-oxo-2H-chromen-3-yl)ethyl)-3-(naphthalen-2-ylmethyl)urea] was tested. Which “Protection (fold protection of LC from protease)” value did it give?
**A.** C (C ≥ 0.6)

**Q.** For Cc1cc(=O)oc2cc(C(F)(F)F)ccc12 [Compound 169, 4-methyl-7-(trifluoromethyl)-2H-chromen-2-one], which “Protection (fold protection of LC from protease)” value is on record?
**A.** A (A < 0.3))

**Q.** Which “Protection (fold protection of LC from protease)” value does the source give for CCN(CC)c1ccc2c(C)c(CCN3C(=O)NC4(CCN(S(=O)(=O)NC)C4)C3=O)c(=O)oc2c1 (stereo not shown) [Compound 204, 3-(2-(7-(diethylamino)-4-methyl-2-oxo-2H-chromen-3-yl)ethyl)-N-methyl-2,4-dioxo-1,3,7-triazaspiro[4.4]nonane-7-sulfonamide] here?
**A.** B (3 ≤ B < 0.6)

**Q.** How did the “Protection (fold protection of LC from protease)” value turn out when CCN(CC)c1ccc2c(C)c(CCOC(=O)NCc3ncccn3)c(=O)oc2c1 [Compound 93, 2-(7-(diethylamino)-4-methyl-2-oxo-2H-chromen-3-yl)ethyl (pyrimidin-2-ylmethyl)carbamate] was run?
**A.** B (3 ≤ B < 0.6)

**Q.** CCN(CC)c1ccc2c(C)c(CCNC(=O)NCc3cccc(S(N)(=O)=O)c3)c(=O)oc2c1 [Compound 299, 3-((3-(2-(7-(diethylamino)-4-methyl-2-oxo-2H-chromen-3-yl)ethyl)ureido)methyl)benzenesulfonamide] was tested. Which “Protection (fold protection of LC from protease)” value did it give?
**A.** B (3 ≤ B < 0.6)

**Q.** For CCN(CC)c1ccc2c(C)c(CCN3C(=O)NC4(CCN(S(=O)(=O)c5ccccc5)CC4)C3=O)c(=O)oc2c1 [Compound 200, 3-(2-(7-(diethylamino)-4-methyl-2-oxo-2H-chromen-3-yl)ethyl)-8-(phenylsulfonyl)-1,3,8-triazaspiro[4.5]decane-2,4-dione], which “Protection (fold protection of LC from protease)” value is on record?
**A.** A (A < 0.3))

**Q.** How did the “Protection (fold protection of LC from protease)” value turn out when Cc1cc(=O)oc2cc(N(C)CC3CC3)ccc12 [Compound 255, 7-((cyclopropylmethyl)(methyl)amino)-4-methyl-2H-chromen-2-one] was run?
**A.** A (A < 0.3))

**Q.** Which “Protection (fold protection of LC from protease)” value does the source give for CCN(CC)c1ccc2c(C)c(CCN3C(=O)NC4(CCN(C(=O)c5ncccn5)CC4)C3=O)c(=O)oc2c1 [Compound 206, 3-(2-(7-(diethylamino)-4-methyl-2-oxo-2H-chromen-3-yl)ethyl)-8-(pyrimidine-2-carbonyl)-1,3,8-triazaspiro[4.5]decane-2,4-dione] here?
**A.** A (A < 0.3))

**Q.** For CCN(CC)c1ccc2c(C)c(CCN3C(=O)NC4(CCN(C(=O)c5cncnc5)CC4)C3=O)c(=O)oc2c1 [Compound 210, 3-(2-(7-(diethylamino)-4-methyl-2-oxo-2H-chromen-3-yl)ethyl)-8-(pyrimidine-5-carbonyl)-1,3,8-triazaspiro[4.5]decane-2,4-dione], which “Protection (fold protection of LC from protease)” value is on record?
**A.** B (3 ≤ B < 0.6)

**Q.** For CCN(CC)c1ccc2c(C)c(CCOC(=O)NCc3ccc(C(F)(F)F)nc3)c(=O)oc2c1 [Compound 101, 2-(7-(diethylamino)-4-methyl-2-oxo-2H-chromen-3-yl)ethyl ((6-(trifluoromethyl)pyridin-3-yl)methyl)carbamate], which “Protection (fold protection of LC from protease)” value is on record?
**A.** A (A < 0.3))

**Q.** Which “Protection (fold protection of LC from protease)” value does the source give for CCN(CC)c1ccc2c(C)c(CCOC(=O)N3CCN(c4ncccn4)CC3)c(=O)oc2c1 [Compound 116, 2-(7-(diethylamino)-4-methyl-2-oxo-2H-chromen-3-yl)ethyl 4-(pyrimidin-2-yl)piperazine-1-carboxylate] here?
**A.** A (A < 0.3))

**Q.** With CCN(CC)c1ccc2c(C)c(CCC(=O)NC)c(=O)oc2c1 [Compound 66, 3-(7-(diethylamino)-4-methyl-2-oxo-2H-chromen-3-yl)-N-methylpropanamide] as the compound, how does the “Protection (fold protection of LC from protease)” value read?
**A.** A (A < 0.3))

**Q.** For CCN(CC)c1ccc2c(C)c(CCOC(=O)NCc3cccc(-c4ccccc4OS(=O)(=O)F)c3)c(=O)oc2c1 [Compound 219, 3′-((((2-(7-(diethylamino)-4-methyl-2-oxo-2H-chromen-3-yl)ethoxy)carbonyl)amino)methyl)-[1,1′-biphenyl]-2-yl sulfurofluoridate], which “Protection (fold protection of LC from protease)” value is on record?
**A.** A (A < 0.3))

**Q.** How did the “Protection (fold protection of LC from protease)” value turn out when CCN(CC)c1ccc2c(C)c(CCN3C(=O)NC4(CCN(c5ccc(C(F)(F)F)cn5)CC4)C3=O)c(=O)oc2c1 [Compound 187, 3-(2-(7-(diethylamino)-4-methyl-2-oxo-2H-chromen-3-yl)ethyl)-8-(5-(trifluoromethyl)pyridin-2-yl)-1,3,8-triazaspiro[4.5]decane-2,4-dione] was run?
**A.** A (A < 0.3))

**Q.** How did the “Protection (fold protection of LC from protease)” value turn out when CCN(CC)c1ccc2c(C)c(CCOC(=O)NCc3cccc(CCC(=O)O)c3)c(=O)oc2c1 [Compound 309, 3-(3-((((2-(7-(diethylamino)-4-methyl-2-oxo-2H-chromen-3-yl)ethoxy)carbonyl)amino)methyl)phenyl)propanoic acid] was run?
**A.** A (A < 0.3))

**Q.** CCN(CC)c1ccc2c(C)c(CCO)c(=O)oc2c1 [Compound 53, 7-(diethylamino)-3-(2-hydroxyethyl)-4-methyl-2H-chromen-2-one] was tested. Which “Protection (fold protection of LC from protease)” value did it give?
**A.** A (A < 0.3))

**Q.** With CCN(CC)c1ccc2c(C)c(CCNC(=O)NCc3cc(F)cc(C(=O)O)c3)c(=O)oc2c1 [Compound 297, 3-((3-(2-(7-(diethylamino)-4-methyl-2-oxo-2H-chromen-3-yl)ethyl)ureido)methyl)-5-fluorobenzoic acid] as the compound, how does the “Protection (fold protection of LC from protease)” value read?
**A.** A (A < 0.3))

**Q.** With CCN(CC)c1ccc2c(C)c(CCOC(=O)NCc3cccc(S(N)(=O)=O)c3)c(=O)oc2c1 [Compound 149, 2-(7-(diethylamino)-4-methyl-2-oxo-2H-chromen-3-yl)ethyl (3-sulfamoylbenzyl)carbamate] as the compound, how does the “Protection (fold protection of LC from protease)” value read?
**A.** C (C ≥ 0.6)

**Q.** For CCN(CC)c1ccc2c(C)c(CCOC(=O)NCc3cncc4ccccc34)c(=O)oc2c1 [Compound 140, 2-(7-(diethylamino)-4-methyl-2-oxo-2H-chromen-3-yl)ethyl (isoquinolin-4-ylmethyl)carbamate], which “Protection (fold protection of LC from protease)” value is on record?
**A.** A (A < 0.3))

**Q.** Which “Protection (fold protection of LC from protease)” value does the source give for CCN(CC)c1ccc2c(C)c(CCN3C(=O)NC4(CCN(C(=O)c5ccc(C(N)=O)cc5)C4)C3=O)c(=O)oc2c1 (stereo not shown) [Compound 199, 4-(3-(2-(7-(diethylamino)-4-methyl-2-oxo-2H-chromen-3-yl)ethyl)-2,4-dioxo-1,3,7-triazaspiro[4.4]nonane-7-carbonyl)benzamide] here?
**A.** B (3 ≤ B < 0.6)

**Q.** For Cc1cc(=O)oc2cc(C(=O)NCc3ccc4[nH]ccc4c3)ccc12 [Compound 237, N-((1H-indol-5-yl)methyl)-4-methyl-2-oxo-2H-chromene-7-carboxamide], which “Protection (fold protection of LC from protease)” value is on record?
**A.** A (A < 0.3))

**Q.** How did the “Protection (fold protection of LC from protease)” value turn out when CCN(CC)c1ccc2c(C)c(CCNC(=O)NCc3cccc(CCC(=O)OC)c3)c(=O)oc2c1 [Compound 308, Methyl 3-(3-((3-(2-(7-(diethylamino)-4-methyl-2-oxo-2H-chromen-3-yl)ethyl)ureido)methyl)phenyl)propanoate] was run?
**A.** B (3 ≤ B < 0.6)

**Q.** With CCN(CC)c1ccc2c(C)c(CCOC(=O)NCc3nccc4ccccc34)c(=O)oc2c1 [Compound 139, 2-(7-(diethylamino)-4-methyl-2-oxo-2H-chromen-3-yl)ethyl (isoquinolin-1-ylmethyl)carbamate] as the compound, how does the “Protection (fold protection of LC from protease)” value read?
**A.** A (A < 0.3))

**Q.** CCN(CC)c1ccc2c(O)cc(=O)oc2c1 [Compound 27, 7-(diethylamino)-4-hydroxy-2H-chromen-2-one] was tested. Which “Protection (fold protection of LC from protease)” value did it give?
**A.** A (A < 0.3))

**Q.** For CCN(CC)c1ccc2c(C)c(CCNC(=O)NCc3ccncn3)c(=O)oc2c1 [Compound 294, 1-(2-(7-(diethylamino)-4-methyl-2-oxo-2H-chromen-3-yl)ethyl)-3-(pyrimidin-4-ylmethyl)urea], which “Protection (fold protection of LC from protease)” value is on record?
**A.** A (A < 0.3))

**Q.** How did the “Protection (fold protection of LC from protease)” value turn out when Cc1cc(=O)oc2cc(C(=O)Nc3ccc4[nH]cnc4c3)ccc12 [Compound 238, N-(1H-benzo[d]imidazol-6-yl)-4-methyl-2-oxo-2H-chromene-7-carboxamide] was run?
**A.** A (A < 0.3))

**Q.** Which “Protection (fold protection of LC from protease)” value does the source give for Cc1cc(=O)oc2cc(C(=O)NCc3c[nH]c4ccccc34)ccc12 [Compound 236, N-((1H-indol-3-yl)methyl)-4-methyl-2-oxo-2H-chromene-7-carboxamide] here?
**A.** A (A < 0.3))

**Q.** For CCN(CC)c1ccc2c(C)c(CCC(=O)NCCc3ccc(F)cc3)c(=O)oc2c1 [Compound 73], which “Protection (fold protection of LC from protease)” value is on record?
**A.** A (A < 0.3))

**Q.** For CCN(CC)c1ccc2c(C)c(CCNC(=O)OC(C)(C)C)c(=O)oc2c1 [Compound 69, Tert-butyl (2-(7-(diethylamino)-4-methyl-2-oxo-2H-chromen-3-yl)ethyl)carbamate], which “Protection (fold protection of LC from protease)” value is on record?
**A.** A (A < 0.3))

**Q.** Which “Protection (fold protection of LC from protease)” value does the source give for CCN(CC#N)c1ccc2c(C)cc(=O)oc2c1 [Compound 272, 2-(ethyl(4-methyl-2-oxo-2H-chromen-7-yl)amino)acetonitrile] here?
**A.** A (A < 0.3))

**Q.** How did the “Protection (fold protection of LC from protease)” value turn out when Cc1cc(=O)oc2cc(C(=O)NCc3ccccn3)ccc12 [Compound 226, 4-methyl-2-oxo-N-(pyridin-2-ylmethyl)-2H-chromene-7-carboxamide] was run?
**A.** A (A < 0.3))

**Q.** CCN(CC)c1ccc2c(C)c(CCOC(=O)N3CCN(S(=O)(=O)C4CC4)CC3)c(=O)oc2c1 [Compound 107, 2-(7-(diethylamino)-4-methyl-2-oxo-2H-chromen-3-yl)ethyl 4-(cyclopropylsulfonyl)piperazine-1-carboxylate] was tested. Which “Protection (fold protection of LC from protease)” value did it give?
**A.** A (A < 0.3))

**Q.** Which “Protection (fold protection of LC from protease)” value does the source give for CCN(CC)c1ccc2c(C)c(CCOC(=O)NCc3cccc(CN(C)C)c3)c(=O)oc2c1 [Compound 135, 2-(7-(diethylamino)-4-methyl-2-oxo-2H-chromen-3-yl)ethyl (3-((dimethylamino)methyl)benzyl)carbamate] here?
**A.** C (C ≥ 0.6)
